PMC7918738, “Microtubule Destabilizing Sulfonamides as an Alternative to Taxane-Based Chemotherapy” (International Journal of Molecular Sciences, 2021)

Assays:
[1] = set-up: method as in PMID 12734814, PMID 17116587, PMID 17613018; settings: cited from earlier work
SKOV3 cells = experiment: Annexin V-FITC/PI cell death quantification in SKOV3; format: cell-based, human; settings: SKOV3, 72 h, 38 600 nM, 42 50 nM, 45 400 nM, paclitaxel 10 nM
Protocol: To determine whether the cytotoxic/antiproliferative effect of the MDS was due to apoptosis induction, cells were treated with variable concentrations of the drug for 72 h or 6 days, stained with Annexin V-FITC (AnV) and propidium iodide (PI), and analyzed by flow cytometry. Double negative cells (AnV^−/PI^−) were classified as live cells (L), cells positive for AnV and negative for PI (AnV^+/PI^−) were considered in Early Apoptosis (EA), cells negative for AnV and positive for PI (AnV^−/PI^+) were considered necrotic (N), and double-positive cells (AnV^+/PI^+) as Late Apoptosis (LA). In all cases, the compounds were used at the same concentrations previously used in cell cycle studies (Table 5).
MCF7, SKOV-3, and HeLa apoptotic cells were quantified using an Annexin V-FITC/PI apoptosis detection kit (Immunostep, Salamanca, Spain) according to the manufacturer’s guidelines. 1.5 mL/well of cells in the exponential growth phase at 2·10^4 cells/mL were seeded onto 12-well plates and left to attach overnight. After 24 h incubation, cells were treated with selected compounds. After 72 h (MCF7, SKOV-3, and HeLa) and 6 days (MCF7) post-treatment, attached and floating cells of treated and untreated wells were collected, centrifuged, resuspended in Annexin V binding buffer, and stained with Annexin V-FITC/PI. Cells were then incubated in darkness at room temperature for 15 min and a total of 30,000 cells were acquired and analyzed using the BD Accuri™ C6 Plus Flow Cytometer and Software (version 1.0.264.21, BD Biosciences, San José, CA, USA), respectively. Compounds were dissolved in DMSO and the final solvent concentration never exceeded 0.5% (v/v). Control wells included cells with 0.5% (v/v) DMSO.

[2] = system: SKOV3 ovarian carcinoma cells; experiment: Antiproliferative activity against SKOV3 (MTT); format: cell-based; settings: Homo sapiens, SK-OV-3, 72 h
Protocol: (§1) The in vitro antiproliferative activity of compounds 38, 42, and 45 against a panel of five human ovarian carcinoma cell lines (SKOV3, IGROV-1, A2780, OVCAR-8, and OVCAR-3) was evaluated by a colorimetric method (Table 3) and compared with paclitaxel. […] For SKOV3, the potency reduction observed for paclitaxel together with a sustained or improved (42 with a 7 nM IC50 value) potency for MDS results in a more favorable profile of the MDS compared to paclitaxel.
(§2) MCF7 (human breast carcinoma), SKOV-3 (human ovarian carcinoma), OVCAR-3 (human ovarian carcinoma), OVCAR-8 (human ovarian carcinoma), and HeLa (human cervical carcinoma) cell lines were cultured in Dulbecco’s Modified Eagle’s Medium (DMEM) (Gibco, Thermo Fischer Scientific) containing 10% (v/v) heat-inactivated fetal bovine serum (HIFBS) (Lonza-Cambrex, Karlskoga, Sweden), 2 mM L-glutamine (Lonza-Cambrex, Karlskoga, Sweden), 100 μg/mL streptomycin, and 100 IU/mL penicillin (Lonza-Cambrex) at 37 °C in humidified 95% air and 5% CO2. HT-29 (human colon carcinoma), IGROV-1 (human ovarian carcinoma), and A2780 (human ovarian carcinoma) cell lines were cultured in RPMI 1640 medium (Gibco, Thermo Fischer Scientific) supplemented with 10% HIFBS, 100 μg/mL streptomycin, and 100 IU/mL penicillin at 37 °C in humidified 95% air and 5% CO2 atmosphere. The presence of mycoplasma was routinely checked with MycoAlert kit (Lonza-Cambrex) and only mycoplasma-free cells were used in the experiments. Ovarian tumor cell lines were originally acquired from Dr Atanasio Pandiella from Centro de Investigación del Cáncer (CIC), Salamanca, Spain. HeLa, HT-29 and MCF7 tumor cell lines were provided by Dr Faustino Mollinedo from Centro de Investigaciones Biológicas Margarita Salas, Madrid, Spain.
(§3) MCF7, HeLa, and HT-29 cell proliferation, when treated with the corresponding compounds, were determined using the XTT (sodium 3’-[1(phenylaminocarbonyl)-3,4-tetrazolium]-bis(4-methoxy-6-nitro)-benzenesulfonic acid hydrate) cell proliferation kit (Roche Molecular Biochemicals, Mannheim, Germany). […] The absorbance of the formazan product generated was measured at 450 nm using a multi-well plate reader. SKOV-3, OVCAR-3, OVCAR-8, IGROV-1, A-2780 cell proliferation, when treated with the corresponding compound, were determined using MTT (3-(4,5-dimethylthiazol-2-yl)-2,5-diphenyl-2H-tetrazolium bromide) (Sigma-Aldrich, St. Louis, MO, USA). […] Absorbance was measured at 570 nm in a plate reader (Ultra Evolution, Tecan, Männedorf, Suiza). […] After 24 h incubation, to allow cells to attach to the plates, all compounds were added at 1 µM concentration and the effect on the proliferation was evaluated 72 h post-treatment. […]

[3] = system: MCF7 (breast adenocarcinoma); set-up: method as in PMID 7903152; settings: read-out: Antiproliferative Activity IC50 MCF7; cited from earlier work
[4] = system: A2780 ovarian carcinoma cells; set-up: method as in ref 14 (Bicaku, E. et al.); settings: ref 14 (Bicaku, E. et al.); read-out: Antiproliferative Activity IC50 A2780; cited from earlier work
[5] = system: IGROV-1 ovarian carcinoma cells; experiment: Antiproliferative activity against IGROV-1 (MTT); format: cell-based; settings: Homo sapiens, 72 h
Protocol: as §1, §2, §3

[6] = system: OVCAR-3 ovarian carcinoma cells; set-up: method as in ref 14 (Bicaku, E. et al.); settings: ref 14 (Bicaku, E. et al.); read-out: Antiproliferative Activity IC50 OVCAR-3; cited from earlier work
[7] = system: OVCAR-8 ovarian carcinoma cells; set-up: method as in ref 14 (Bicaku, E. et al.); settings: ref 14 (Bicaku, E. et al.); read-out: Antiproliferative Activity IC50 OVCAR-8; cited from earlier work
[8] = system: HT-29 (colon adenocarcinoma); set-up: method as in ref 52 (a number printed in a supplementary file, which may have a reference list of its own: not looked up in the article's list); settings: read-out: Antiproliferative Activity IC50 HT-29; cited from earlier work
[9] = system: HeLa (cervix epithelioid carcinoma); set-up: method as in PMID 7903152; settings: read-out: Antiproliferative Activity IC50 HeLa; cited from earlier work

IC50 [2]: 81 nM
IC50 [5]: 39 nM
SMILES: CC(=O)O[C@H]1C(=O)[C@@]2(C)[C@H]([C@H](OC(=O)c3ccccc3)[C@]3(O)C[C@H](OC(=O)[C@H](O)[C@@H](NC(=O)c4ccccc4)c4ccccc4)C(C)=C1C3(C)C)[C@]1(OC(C)=O)CO[C@@H]1C[C@@H]2O [Paclitaxel, reference compound]
Aqueous solubility [1]: <2 µg/mL
Annexin V-FITC/PI 72 h EA (early apoptosis) (SKOV3 cells): 3.8%
Annexin V-FITC/PI 72 h LA (late apoptosis) (SKOV3 cells): 3.1%
Annexin V-FITC/PI 72 h Live (SKOV3 cells): 90.7%
Annexin V-FITC/PI 72 h Necrosis (SKOV3 cells): 2.4%
Annexin V-positive SKOV3 cells (SKOV3 cells): 7%
Annexin V-FITC/PI 72 h Live (SKOV3 cells; listed as paclitaxel): 91%
IC50 [3]: 2.5 nM
IC50 [4]: 3 nM
IC50 [6]: 17 nM
IC50 [7]: 6 nM
IC50 [8]: 2.8 nM
IC50 [9]: 2.6 nM
